Tested on: SEM cells
Assay: cell viability relative to DMSO control; higher = less cytotoxic
Conditions: 48 h
Outline: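 Three leukemia lines were tested: NOMO1 and SEM at 500 cells/well and P12-Ichikawa at 1000 cells/well. Each was adapted for at least four passages in each medium and seeded in 5 μl in 1536-well plates, and library compounds in DMSO were pin-dosed from 47 μM to 0.79 nM in 11 threefold steps. After 48 h at 37°C, CellTiter-Glo One luminescence was read. Viability is a percentage relative to DMSO wells on each plate, with cell-free wells as background.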

[1] = HPLM + 10% dialyzed FBS, 0.000781 µM
[2] = HPLM + 10% dialyzed FBS, 0.00234 µM
[3] = HPLM + 10% dialyzed FBS, 0.00702 µM
[4] = HPLM + 10% dialyzed FBS, 0.0211 µM
[5] = HPLM + 10% dialyzed FBS, 0.0632 µM
[6] = HPLM + 10% dialyzed FBS, 0.19 µM
[7] = HPLM + 10% dialyzed FBS, 0.569 µM
[8] = HPLM + 10% dialyzed FBS, 1.71 µM
[9] = HPLM + 10% dialyzed FBS, 5.12 µM
[10] = HPLM + 10% dialyzed FBS, 15.4 µM
[11] = HPLM + 10% dialyzed FBS, 46.1 µM
[12] = RPMI 5 mM glucose + 10% FBS, 0.000781 µM
[13] = RPMI 5 mM glucose + 10% FBS, 0.00234 µM
[14] = RPMI 5 mM glucose + 10% FBS, 0.00702 µM
[15] = RPMI 5 mM glucose + 10% FBS, 0.0211 µM
[16] = RPMI 5 mM glucose + 10% FBS, 0.0632 µM
[17] = RPMI 5 mM glucose + 10% FBS, 0.19 µM
[18] = RPMI 5 mM glucose + 10% FBS, 0.569 µM
[19] = RPMI 5 mM glucose + 10% FBS, 1.71 µM
[20] = RPMI 5 mM glucose + 10% FBS, 5.12 µM
[21] = RPMI 5 mM glucose + 10% FBS, 15.4 µM
[22] = RPMI 5 mM glucose + 10% FBS, 46.1 µM
[23] = RPMI 5 mM glucose + 10% dialyzed FBS, 0.000781 µM
[24] = RPMI 5 mM glucose + 10% dialyzed FBS, 0.00234 µM
[25] = RPMI 5 mM glucose + 10% dialyzed FBS, 0.00702 µM
[26] = RPMI 5 mM glucose + 10% dialyzed FBS, 0.0211 µM
[27] = RPMI 5 mM glucose + 10% dialyzed FBS, 0.0632 µM
[28] = RPMI 5 mM glucose + 10% dialyzed FBS, 0.19 µM
[29] = RPMI 5 mM glucose + 10% dialyzed FBS, 0.569 µM
[30] = RPMI 5 mM glucose + 10% dialyzed FBS, 1.71 µM
[31] = RPMI 5 mM glucose + 10% dialyzed FBS, 5.12 µM
[32] = RPMI 5 mM glucose + 10% dialyzed FBS, 15.4 µM
[33] = RPMI 5 mM glucose + 10% dialyzed FBS, 46.1 µM

| SMILES | cell viability [1] [%] | cell viability [2] [%] | cell viability [3] [%] | cell viability [4] [%] | cell viability [5] [%] | cell viability [6] [%] | cell viability [7] [%] | cell viability [8] [%] | cell viability [9] [%] | cell viability [10] [%] | cell viability [11] [%] | cell viability [12] [%] | cell viability [13] [%] | cell viability [14] [%] | cell viability [15] [%] | cell viability [16] [%] | cell viability [17] [%] | cell viability [18] [%] | cell viability [19] [%] | cell viability [20] [%] | cell viability [21] [%] | cell viability [22] [%] | cell viability [23] [%] | cell viability [24] [%] | cell viability [25] [%] | cell viability [26] [%] | cell viability [27] [%] | cell viability [28] [%] | cell viability [29] [%] | cell viability [30] [%] | cell viability [31] [%] | cell viability [32] [%] | cell viability [33] [%] |
| --- | --- | --- | --- | --- | --- | --- | --- | --- | --- | --- | --- | --- | --- | --- | --- | --- | --- | --- | --- | --- | --- | --- | --- | --- | --- | --- | --- | --- | --- | --- | --- | --- | --- |
| C/C(O)=C(\C#N)C(=O)Nc1cc(Br)ccc1Br | 108 | 102 | 112 | 107 | 112 | 110 | 107 | 109 | 108 | 32.2 | 75.4 | 122 | 104 | 104 | 106 | 119 | 112 | 99 | 113 | 106 | 32.8 | 84.9 | 112 | 110 | 108 | 118 | 107 | 108 | 105 | 111 | 99 | 32 | 70.5 |
| COC1=CC=CC(=C1N)\C2=C\C(=O)C3=C(O2)C=CC=C3 | 99.8 | 123 | 124 | 130 | 129 | 146 | 140 | 145 | 148 | 145 | 156 | 119 | 112 | 120 | 121 | 136 | 136 | 161 | 143 | 141 | 177 | 144 | 106 | 111 | 134 | 134 | 128 | 136 | 145 | 164 | 149 | 160 | 155 |
| Cc1csc(NC(=O)c2sc3nc4c(c(C(F)(F)F)c3c2N)CCC4)n1 | 82 | 96.7 | 93.6 | 81.8 | 108 | 86.6 | 96 | 101 | 81.1 | 70.2 | 89.3 | 82.1 | 99.9 | 89.7 | 107 | 92.2 | 104 | 106 | 97.1 | 84 | 73.1 | 79 | 84.4 | 96.8 | 106 | 80.8 | 92.9 | 99.3 | 89.6 | 97 | 76.6 | 69.9 | 69.9 |
| CN(C)CCN(C)C(=O)c1ccc(NC(=O)Nc2ccc(-c3nc(N4CCOCC4)c4ccn(CC(F)(F)F)c4n3)cc2)cc1 | 104 | 100 | 120 | 111 | 88 | 63.9 | 65.8 | 48.6 | 52.7 | 50.2 | 54.3 | 106 | 81.7 | 96.2 | 117 | 73.7 | 48 | 49.2 | 45.9 | 45.8 | 43.6 | 48.7 | 112 | 110 | 112 | 113 | 87.6 | 75.5 | 63.2 | 60.1 | 56.6 | 51 | 53.3 |
| O=C(Nc1ncc(SCCN2CCCC2)s1)[C@]1(c2ccc([S+](=O)([O-])C3CC3)cc2)C[C@H]1C1CCCCC1 | 131 | 111 | 120 | 124 | 111 | 108 | 109 | 63.2 | 98.9 | 73.9 | 27.5 | 113 | 117 | 126 | 123 | 120 | 126 | 115 | 71.2 | 123 | 114 | 41.8 | 129 | 106 | 120 | 118 | 117 | 117 | 138 | 51.5 | 110 | 105 | 52.5 |
| COc1ccc2[nH]c([S+]([O-])Cc3ncc(C)c(OC)c3C)nc2c1 (stereo not given) | 83.2 | 84.8 | 66.8 | 87.9 | 71.9 | 70.5 | 86.6 | 42.6 | 72.8 | 74.9 | 75.7 | 83.8 | 91 | 83.9 | 101 | 77.3 | 100 | 96.8 | 63.8 | 87.5 | 87.1 | 69.8 | 81.4 | 83.5 | 77 | 95.8 | 76.7 | 86.8 | 105 | 69.7 | 76.3 | 83.6 | 68.3 |
| Cc1cc(Nc2nc(N[C@@H](C)c3ccc(F)cc3)c(C#N)cc2F)n[nH]1 | 120 | 106 | 114 | 110 | 101 | 95 | 99.1 | 88.7 | 23.4 | 15 | 7.41 | 112 | 104 | 111 | 112 | 107 | 112 | 103 | 93.4 | 24.1 | 13.3 | 6.68 | 104 | 100 | 106 | 105 | 93.9 | 101 | 100 | 76.9 | 23.9 | 16.7 | 6.42 |
| CN1CCC[C@@H]1CCO[C@](C)(c1ccccc1)c1ccc(Cl)cc1 | 85.8 | 96.5 | 102 | 104 | 122 | 108 | 99.1 | 115 | 111 | 104 | 81.4 | 103 | 116 | 118 | 117 | 115 | 115 | 112 | 114 | 124 | 118 | 97.4 | 86.1 | 110 | 107 | 104 | 114 | 121 | 109 | 116 | 115 | 118 | 93 |
| CCOC(=O)c1cncn1[C@H](C)c1ccccc1 | 101 | 92.8 | 92.6 | 89.6 | 108 | 96.9 | 23.1 | 106 | 113 | 96.2 | 89.8 | 111 | 110 | 97.4 | 109 | 112 | 114 | 21.6 | 107 | 117 | 108 | 111 | 118 | 116 | 93.8 | 109 | 128 | 102 | 26.4 | 115 | 98.9 | 106 | 97.7 |
| C[C@]12CC[C@@H]3c4ccc(O)cc4CC[C@H]3[C@@H]1C[C@@H](O)[C@@H]2O | 105 | 116 | 108 | 119 | 113 | 121 | 113 | 116 | 113 | 105 | 91.3 | 86.9 | 83.6 | 97.3 | 95.6 | 91.5 | 89.3 | 91.8 | 79.7 | 90.9 | 82.6 | 66.4 | 127 | 120 | 114 | 128 | 129 | 115 | 126 | 106 | 112 | 116 | 92.4 |
| Cc1cc(Nc2cc(CN3CCOCC3)c3nc(C)c(Cc4ccc(Cl)cc4F)n3n2)[nH]n1 | 119 | 116 | 113 | 108 | 116 | 105 | 74.6 | 60.5 | 51.4 | 22.9 | 21.4 | 113 | 107 | 114 | 109 | 108 | 83.2 | 61.6 | 58.8 | 49.4 | 14.8 | 6.83 | 109 | 129 | 122 | 92.4 | 106 | 95.2 | 66.1 | 52.7 | 40.9 | 11.6 | 9.11 |
| O=C(c1ccc(F)c(F)c1Nc1ccc(I)cc1F)N1CC(O)([C@@H]2CCCCN2)C1 | 75.2 | 92.2 | 98.2 | 99.8 | 85.4 | 83.6 | 105 | 97 | 69.2 | 71.4 | 60.8 | 98.8 | 88.6 | 100 | 104 | 98.1 | 100 | 92.5 | 99.1 | 77.8 | 71.6 | 55.1 | 82.8 | 96.3 | 97.4 | 111 | 104 | 96.6 | 86.2 | 92.7 | 68.5 | 76.9 | 60.1 |
| C[C@]12CC[C@H]3[C@@H](C\C=C/4C[C@@H](O)CC[C@]34C)[C@@H]1CCC2=O | 103 | 98.2 | 91.1 | 102 | 98.4 | 94.6 | 99.8 | 98.2 | 83.4 | 107 | 103 | 108 | 114 | 121 | 135 | 136 | 111 | 135 | 115 | 93.1 | 116 | 97.5 | 112 | 97.1 | 118 | 128 | 127 | 136 | 130 | 121 | 94.3 | 115 | 112 |
| COc1cc([C@H]2Oc3cc([C@H]4Oc5cc(O)cc(O)c5C(=O)[C@@H]4O)ccc3O[C@@H]2CO)ccc1O | 63.6 | 105 | 109 | 112 | 117 | 121 | 121 | 105 | 110 | 98.6 | 92.7 | 101 | 118 | 117 | 116 | 121 | 118 | 104 | 120 | 123 | 120 | 108 | 93.5 | 114 | 124 | 124 | 133 | 126 | 124 | 132 | 118 | 120 | 112 |
| O=C(Oc1ccc([N+](=O)[O-])cc1)N1CCC(C(O)(c2ccc3c(c2)OCO3)c2ccc3c(c2)OCO3)CC1 | 72.2 | 89.4 | 64.5 | 97 | 86.3 | 94.8 | 99.7 | 83.7 | 46.6 | 93.5 | 86.1 | 83.3 | 72 | 58.6 | 93.2 | 94.5 | 90.4 | 84 | 78.6 | 35.4 | 99.3 | 85.5 | 90.1 | 95 | 61.6 | 95.9 | 88.6 | 94.7 | 97.9 | 99.3 | 46.3 | 96.2 | 98.2 |
